Experimental data published in article PMC7845544 (Frontiers in Pharmacology, 2021).
Values joined by “and” are separate entries in the source; they are usually repeats but may differ in a detail not shown here. Equal entries are not always repeated. “Also recorded” adds a separate entry of the source.

Key:
Solubility in PBS = assay type: physicochemical; conditions: PBS (pH 7.4)
Dog pharmacokinetics = assay type: in vivo; conditions: 10 mg/kg
Monkey pharmacokinetics = assay type: in vivo; conditions: data not shown
mouse oocytes = experiment: Oocyte quality, IVF and embryo development in mice; assay type: in vivo
Procedure: Developmental competence of oocytes was determined in mice, as described previously ([Sriraman et al., 2014]). Mice were superovulated with FSH or FSH + TOP5300. […] To measure nuclear status, oocytes were assessed for perivitelline space and first polar body extrusion by phase contrast inverted microscopy. Oocyte maturity was determined by presence of a polar body reflecting oocytes in metaphase-II (MII). Oocytes without a first polar body were assessed as metaphase-I (MI). After the evaluations, oocytes were incubated for 2 h in the media before use in IVF as described ([Sriraman et al., 2014]). Briefly, oocytes were placed in fertilization media (Research Fertilization Media, Cook Medical, Bloomington, IN, United States) under paraffin oil (Calbiochem, San Diego, CA, United States) and incubated at 37°C in 6% CO2, 5% O2 and 89% N2 for 5–6 h with spermatozoa. Spermatozoa were collected from the cauda epididymis of male C57BL/6J mice and were previously incubated for 1 h in fertilization media prior to use (Research Fertilization Media; Cook Medical, Bloomington, IN) for sperm capacitation. The putative zygotes were then washed and placed in 20 μL drops of culture media (Research Cleave Media; Cook Medical, Bloomington, IN, United States) in Petri dishes, or in 60 μL of culture media in Primo Vision microwell group culture dishes (Vitrolife, Gothenberg, Sweden) and checked for fertilization/cleavage the next morning. Embryos were then cultured in the incubator for an additional 3 days to the blastocyst stage and the blastocyst development rate was recorded.

mammalian cell = experiment: Chromosomal aberrations, micronucleus test (MNT); assay type: cell-based
PDE isoforms = experiment: Phosphodiesterase (PDE) profile (Eurofins); assay type: biochemical; conditions: 9 isoforms PDE
211 kinases = experiment: Kinase profile (Eurofins); assay type: biochemical
55 targets = experiment: Single concentration Cerep profile (Eurofins); assay type: binding; conditions: 10 uM
Sprague Dawley rats = tested on: Sprague Dawley rats
Procedure: Toxicological evaluations were performed in both rat and dog as the second species according to the guidance from FDA. […] The animals were administered vehicle or 30, 100, 300 and 1,000 mg/kg by oral gavage for 14 days. […] Separate groups of animals (n = 6/sex/dose) were used for toxicokinetic (TK) analysis. On day 1 and day 14 of drug administration, serial blood samples were collected from 5 min to 24 h from the TK group animals for analytical measurement of the compound. Blood samples were placed on ice immediately after collection and were centrifuged at approximately 8,000 rpm for 6 min at 2–8°C and the resulting plasma were separated and stored in pre-labeled plastic tubes or vials. The amount of compound in the plasma samples were measure using an HPLC method. […] Evaluated parameters included; mortality, clinical signs, body weight, food consumption, urinalysis, hematology, clinical chemistry, gross post mortem examinations, organ weights and histopathological evaluations of selected tissues. At the end of 14-days of treatment, animals were sacrificed and blood collected for serum chemistry, coagulation and hematological analysis, organ weighed and histological analysis performed in select tissue from control and high dose group.

beagle dogs [1] = experiment: 14-day toxicity and toxicokinetics in Beagle dog; assay type: in vivo
Procedure: (§1) Male and female beagle dogs were received from Beijing Marshall Biotechnology Co., Ltd (Beijing, China) and group housed at Covance (Shanghai, China), except for 5 h each day in stainless steel cages for study-related procedures. […] Blood samples (approximately 1.0 ml) were collected for thyroid hormone analysis on Days 0, prior to dosing, 24 h post dose (prior to second dose on Day 2) and once prior to dosing on Day 14. Blood was collected into serum separator tubes (without anticoagulant), allowed to clot at room temperature, and centrifuged for approximately 10 min in a refrigerated centrifuge at approximately at 3,500 g within 2 h of collection. Serum was harvested and placed in a freezer for subsequent thyroid hormone measurement.

beagle dogs [2] = experiment: Serum thyroid hormones in beagle dogs treated for 14 days; assay type: in vivo
Procedure: as §1

NK2 receptor = conditions: dose response
Cl-channel (GABA-gated) = conditions: dose response
[3] = rec-hFSH + TOP5300, 30, 100 mg/kg
[4] = female dog, 30 mg/Kg, 0h predosing
[5] = female dog, 100 mg/Kg, 0h predosing
[6] = female dog, 1000 mg/Kg, 0h predosing
[7] = male dog, 30 mg/Kg, 0h predosing
[8] = male dog, 100 mg/Kg, 0h predosing
[9] = male dog, 1000 mg/Kg, 0h predosing

## COc1cc(C(N)=O)cc(-c2cc3c(cc2OC)OCc2c(C(=O)N(C)C(C)(C)C)nn(-c4cc(Cl)cc(Cl)c4)c2-3)n1 [TOP5668]
Solubility in PBS
  fold more soluble than TOP5300: 14 fold

## COc1cc2c(cc1-c1cnn(CCO)c1)-c1c(c(C(=O)N(C)C(C)(C)C)nn1-c1cc(Cl)cc(Cl)c1)CO2 [TOP5300]
Dog pharmacokinetics
  Dog PK AUC: 8,719 ng*h/ml
  Dog PK T1/2: 9 h and 9.4 h
Dog pharmacokinetics; oral bioavailability
  Dog PK F%: 32%
Monkey pharmacokinetics
  half-life, monkey PK: 12.1 h
Mouse oocytes; 30 mg/kg with low dose FSH
  % of M2 oocytes: comparable to FSH and PMSG
Mouse oocytes; 100 mg/kg
  M1/M2 oocytes relative to FSH and PMSG group: fewer mature oocytes (M2 oocytes) and more M1 oocytes
Mouse oocytes; [3]
  fertilization rates vs rec-hFSH-treated mice: no differences
  hatched blastocyst rates vs rec-hFSH-treated mice: no differences
Mammalian cell
  Micronucleus Test (MNT) result: N e g a tiv e; also recorded: inactive
PDE isoforms
  PDE profile @ 10 uM: N o si g ni fi cant i nhi bi ti on any
211 kinases
  Kinase profile @ 10 uM: N o si g ni fi cant i nhi bi ti on any; also recorded: failed to inhibit activity
55 targets
  number of targets < 60% inhibition: 52 targets
  number of targets > 60% inhibition: 3 targets
Sprague Dawley rats; rat
  margin of safety between first significant efficacy (5 mg/kg) and NOAEL (300 mg/kg): 60 fold
Sprague Dawley rats; rat, in vivo
  accumulation after 14-days repeated dosing: not observed
Sprague Dawley rats; rat, in vivo, po
  NOAEL, female rat: 300 mg/kg
  NOAEL, male rat: 1,000 mg/kg
  Tmax, Day1: 2 to 8 h
  Tmax, Day14: 2 to 8 h
Sprague Dawley rats; up to 1,000 mg/kg, 14 days
  mortality, rat: all animals survived the duration of the study
Beagle dogs [1]; 14 days, up to 1,000 mg/kg
  mortality or morbidity, dog: no mortality or morbidity occurred
Beagle dogs [1]; dog, in vivo, po
  NOAEL, dog: 1,000 mg/kg/day
Beagle dogs [2]; dog, 14 days
  TSH, free T3 or free T4 concentrations over the course of treatment: No significant difference
Beagle dogs [2]; [4]
  Free T3, fold change over vehicle group: 0.9 fold
  Free T4, fold change over vehicle group: 1.1 fold
  TSH, fold change over vehicle group: 1.2 fold
Beagle dogs [2]; female dog, 30 mg/Kg, 24h
  Free T3, fold change over vehicle group: 0.8 fold
  Free T4, fold change over vehicle group: 1.1 fold
  TSH, fold change over vehicle group: 0.9 fold
Beagle dogs [2]; female dog, 30 mg/Kg, Day 14
  Free T3, fold change over vehicle group: 1.0 fold
  Free T4, fold change over vehicle group: 0.8 fold
  TSH, fold change over vehicle group: 1.1 fold
Beagle dogs [2]; [5]
  Free T3, fold change over vehicle group: 1.0 fold
  Free T4, fold change over vehicle group: 1.2 fold
  TSH, fold change over vehicle group: 1.3 fold
Beagle dogs [2]; female dog, 100 mg/Kg, 24h
  Free T3, fold change over vehicle group: 0.9 fold
  Free T4, fold change over vehicle group: 1.1 fold
  TSH, fold change over vehicle group: 1.0 fold
Beagle dogs [2]; female dog, 100 mg/Kg, Day 14
  Free T3, fold change over vehicle group: 1.1 fold
  Free T4, fold change over vehicle group: 1.1 fold
  TSH, fold change over vehicle group: 1.1 fold
Beagle dogs [2]; [6]
  Free T3, fold change over vehicle group: 1.1 fold
  Free T4, fold change over vehicle group: 1.0 fold
  TSH, fold change over vehicle group: 1.2 fold
Beagle dogs [2]; female dog, 1000 mg/Kg, 24h
  Free T3, fold change over vehicle group: 0.9 fold
  Free T4, fold change over vehicle group: 0.9 fold
  TSH, fold change over vehicle group: 0.8 fold
Beagle dogs [2]; female dog, 1000 mg/Kg, Day 14
  Free T3, fold change over vehicle group: 1.2 fold
  Free T4, fold change over vehicle group: 0.9 fold
  TSH, fold change over vehicle group: 0.8 fold
Beagle dogs [2]; [7]
  Free T3, fold change over vehicle group: 1.3 fold
  Free T4, fold change over vehicle group: 1.0 fold
  TSH, fold change over vehicle group: 0.8 fold
Beagle dogs [2]; male dog, 30 mg/Kg, 24h
  Free T3, fold change over vehicle group: 1.3 fold
  Free T4, fold change over vehicle group: 1.0 fold
  TSH, fold change over vehicle group: 0.9 fold
Beagle dogs [2]; male dog, 30 mg/Kg, Day 14
  Free T3, fold change over vehicle group: 1.3 fold
  Free T4, fold change over vehicle group: 1.0 fold
  TSH, fold change over vehicle group: 1.0 fold
Beagle dogs [2]; [8]
  Free T3, fold change over vehicle group: 1.1 fold
  Free T4, fold change over vehicle group: 0.9 fold
  TSH, fold change over vehicle group: 0.8 fold
Beagle dogs [2]; male dog, 100 mg/Kg, 24h
  Free T3, fold change over vehicle group: 1.1 fold
  Free T4, fold change over vehicle group: 0.8 fold
  TSH, fold change over vehicle group: 0.9 fold
Beagle dogs [2]; male dog, 100 mg/Kg, Day 14
  Free T3, fold change over vehicle group: 1.1 fold
  Free T4, fold change over vehicle group: 0.9 fold
  TSH, fold change over vehicle group: 1.0 fold
Beagle dogs [2]; [9]
  Free T3, fold change over vehicle group: 1.0 fold
  Free T4, fold change over vehicle group: 0.9 fold
  TSH, fold change over vehicle group: 0.7 fold
Beagle dogs [2]; male dog, 1000 mg/Kg, 24h
  Free T3, fold change over vehicle group: 0.9 fold
  Free T4, fold change over vehicle group: 0.9 fold
  TSH, fold change over vehicle group: 0.9 fold
Beagle dogs [2]; male dog, 1000 mg/Kg, Day 14
  Free T3, fold change over vehicle group: 1.0 fold
  Free T4, fold change over vehicle group: 1.0 fold
  TSH, fold change over vehicle group: 0.8 fold
NK2 receptor
  selectivity / safety margin compared to FSHR, NK2(h): over 400 fold
Cl-channel (GABA-gated)
  selectivity / safety margin compared to FSHR, Cl-channel (GABA-gated): over 400 fold
